Test results: patent US5338869A, “Hydroxyphenylpropionic ester having novel crystal structure” (Sumitomo Chemical Company, Limited, priority 1992, dated 1994)

How the values were obtained:
Assay type in all cases: physicochemical
[1] = Bulk specific gravity (packed state)
[2] = Angle of repose of crystals
[3] = Angle of spatula of crystals
[4] = Hygroscopicity: moisture content after exposure to 100% relative humidity (Karl Fischer method); settings: for Hygroscopicity (Water content in % by weight): room temperature, relative humidity 100%
Source text: Consequently, the crystals can be used conveniently and advantageously with no additional treatment, such as re-drying and moisture-proof packing, even in such uses as the production of polyurethane, which is susceptible to the influence of moisture.

[5] = Solubility in organic solvents at 20° C.

Compound | Bulk Specific Gravity [1] | Angle of Repose [2] [°] | Angle of Spatula [3] [°] | hygroscopicity (in words) ([4]; compared with the prior αβ- and δ-crystals) | Hygroscopicity (Water content in % by weight) ([4]; exposure period 0 Days) [% by weight] | Hygroscopicity (Water content in % by weight) ([4]; exposure period 1 Day) [% by weight] | Hygroscopicity (Water content in % by weight) ([4]; exposure period 50 Days) [% by weight] | Hygroscopicity (Water content in % by weight) ([4]; exposure period 100 Days) [% by weight] | Solubility at 20° C. ([5]; Cyclohexane) [g/100 g solvent] | Solubility at 20° C. ([5]; Methanol) [g/100 g solvent] | Solubility at 20° C. ([5]; Toluene) [g/100 g solvent] | solubility in organic solvents (in words) ([5]; compared with the δ-crystals and the αβ-crystals)
Cc1cc(CCC(=O)OCC(C)(C)C2OCC3(CO2)COC(C(C)(C)COC(=O)CCc2cc(C)c(O)c(C(C)(C)C)c2)OC3)cc(C(C)(C)C)c1O (stereo not shown) [Example 2, 3,9-bis[2-{3-(3-t-butyl-4-hydroxy-5-methylphenyl)propionyloxy}-1,1-dimethylethyl]-2,4,8,10-tetraoxaspiro[5.5]undecane] | 0.60 | 45 | 58 | – | – | – | – | – | – | – | – | –
Cc1cc(CCC(=O)OCC(C)(C)C2OCC3(CO2)COC(C(C)(C)COC(=O)CCc2cc(C)c(O)c(C(C)(C)C)c2)OC3)cc(C(C)(C)C)c1O (stereo not shown) [ε-Crystal, 3,9-bis[2-{3-(3-t-butyl-4-hydroxy-5-methylphenyl)propionyloxy}-1,1-dimethylethyl]-2,4,8,10-tetraoxaspiro[5.5]undecane] | – | – | – | smaller in hygroscopicity than the prior αβ- and δ-crystals | 0.04 | 0.06 | 0.05 | 0.05 | 0.02 | 4 | 9 | lower solubility in organic solvents than the δ-crystals and the αβ-crystals
Cc1cc(CCC(=O)OCC(C)(C)C2OCC3(CO2)COC(C(C)(C)COC(=O)CCc2cc(C)c(O)c(C(C)(C)C)c2)OC3)cc(C(C)(C)C)c1O (stereo not shown) [Comparative Example 2, 3,9-bis[2-{3-(3-t-butyl-4-hydroxy-5-methylphenyl)propionyloxy}-1,1-dimethylethyl]-2,4,8,10-tetraoxaspiro[5.5]undecane, reference compound] | 0.40 | 53 | 74 | – | – | – | – | – | – | – | – | –
Cc1cc(CCC(=O)OCC(C)(C)C2OCC3(CO2)COC(C(C)(C)COC(=O)CCc2cc(C)c(O)c(C(C)(C)C)c2)OC3)cc(C(C)(C)C)c1O (stereo not shown) [δ-Crystal, 3,9-bis[2-{3-(3-t-butyl-4-hydroxy-5-methylphenyl)propionyloxy}-1,1-dimethylethyl]-2,4,8,10-tetraoxaspiro[5.5]undecane, reference compound] | – | – | – | – | 0.10 | 0.47 | 0.50 | 0.45 | 0.06 | 9 | 15 | –
Cc1cc(CCC(=O)OCC(C)(C)C2OCC3(CO2)COC(C(C)(C)COC(=O)CCc2cc(C)c(O)c(C(C)(C)C)c2)OC3)cc(C(C)(C)C)c1O (stereo not shown) [Comparative Example 1, 3,9-bis[2-{3-(3-t-butyl-4-hydroxy-5-methylphenyl)propionyloxy}-1,1-dimethylethyl]-2,4,8,10-tetraoxaspiro[5.5]undecane, reference compound] | 0.43 | 50 | 65 | – | – | – | – | – | – | – | – | –
Cc1cc(CCC(=O)OCC(C)(C)C2OCC3(CO2)COC(C(C)(C)COC(=O)CCc2cc(C)c(O)c(C(C)(C)C)c2)OC3)cc(C(C)(C)C)c1O (stereo not shown) [Example 3, 3,9-bis[2-{3-(3-t-butyl-4-hydroxy-5-methylphenyl)propionyloxy}-1,1-dimethylethyl]-2,4,8,10-tetraoxaspiro[5.5]undecane] | 0.66 | 47 | 58 | – | – | – | – | – | – | – | – | –
Cc1cc(CCC(=O)OCC(C)(C)C2OCC3(CO2)COC(C(C)(C)COC(=O)CCc2cc(C)c(O)c(C(C)(C)C)c2)OC3)cc(C(C)(C)C)c1O (stereo not shown) [Example 1, 3,9-bis[2-{3-(3-t-butyl-4-hydroxy-5-methylphenyl)propionyloxy}-1,1-dimethylethyl]-2,4,8,10-tetraoxaspiro[5,5]undecane] | 0.59 | 45 | 57 | – | – | – | – | – | – | – | – | –
